According to ChEMBL document CHEMBL1135133, “Scaffold hopping and optimization towards libraries of glycogen synthase kinase-3 inhibitors” (Bioorg Med Chem Lett, 2002):

Target: Glycogen synthase kinase-3 beta (Homo sapiens, UniProt P49841)
Test: Inhibitory concentration against human Glycogen synthase kinase-3

Sequence of Glycogen synthase kinase-3 beta (P49841 whole entry): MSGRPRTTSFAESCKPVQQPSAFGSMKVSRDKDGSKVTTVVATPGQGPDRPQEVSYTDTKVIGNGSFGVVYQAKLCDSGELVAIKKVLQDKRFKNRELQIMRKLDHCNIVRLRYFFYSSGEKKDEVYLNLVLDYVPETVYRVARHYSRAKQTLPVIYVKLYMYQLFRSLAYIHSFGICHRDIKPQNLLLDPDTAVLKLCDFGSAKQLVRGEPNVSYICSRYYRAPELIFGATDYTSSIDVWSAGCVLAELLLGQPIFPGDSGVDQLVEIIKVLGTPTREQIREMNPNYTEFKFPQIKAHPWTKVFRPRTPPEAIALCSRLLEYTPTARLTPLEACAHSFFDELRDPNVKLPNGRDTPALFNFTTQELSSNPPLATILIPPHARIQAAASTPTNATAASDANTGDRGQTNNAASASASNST

IC50 [µM] | SMILES
> 250 | O=C(O)Cc1ccc(CSc2nnc(-c3cccnc3)s2)cc1
> 250 | O=C(O)Cc1ccc(CSc2n[nH]c(-c3ccncc3)n2)cc1
198 | Ic1ccc(CSc2nnc(-c3ccncc3)o2)cc1
12 | Clc1ccccc1CSc1nnc(-c2ccncc2)o1
6.7 | c1ccc(CSc2nnc(-c3ccncc3)o2)cc1
29 | c1ccc(CCSc2nnc(-c3ccncc3)o2)cc1
0.82 | Clc1cccc(CSc2nnc(-c3ccncc3)o2)c1
> 250 | Cc1nc(-c2cccc(CSc3nnc(-c4ccncc4)o3)c2)no1
1.2 | O=C(Cc1ccc(CSc2nnc(-c3ccncc3)o2)cc1)NCCc1ccccc1F
8 | O=C(O)Cc1ccc(CSc2nnc(-c3ccncc3)o2)cc1
1.4 | Fc1cccc(CSc2nnc(-c3ccncc3)o2)c1
235 | O=C(O)c1cccc(CSc2nnc(-c3ccncc3)o2)c1
11 | O=C(O)Cc1ccc(CSc2nnc(-c3ccncc3)s2)cc1
29 | O=C(O)c1ccc(CSc2nnc(-c3ccncc3)o2)cc1
> 250 | O=C(O)Cc1ccc(CSc2nnc(-c3ccccn3)s2)cc1
1.1 | COC(=O)c1cccc(CSc2nnc(-c3ccncc3)o2)c1
